# Measured values from patent publication US8299021B2, “Macrocyclic inhibitors of hepatitis C virus replication” (InterMune, Inc., priority 2005, dated 2012).
# Tested on: HCV sub-genomic replicon GS4.3 (HuH-7 hepatoma cells)
# Assay: Quantitation by ELISA of neomycin phosphotransferase II (NPTII) in the HCV sub-genomic replicon, GS4.3
# Format: cell-based
# Conditions: Hepatitis C virus, Huh-7, 72 h, read-out: Replicon EC50
# From the text: Quantitation by ELISA of the Selectable Marker Protein, Neomycin Phosphotransferase II (NPTII) in the HCV Sub-Genomic Replicon, GS4.3
# The HCV sub-genomic replicon (1377/NS3-3′, accession No. AJ242652), stably maintained in HuH-7 hepatoma cells, was created by Lohmann et al. Science 285: 110-113 (1999). The replicon-containing cell culture, designated GS4.3, was obtained from Dr. Christoph Seeger of the Institute for Cancer Research, Fox Chase Cancer Center, Philadelphia, Pa.
# GS4.3 cells were maintained at 37° C., 5% CO2, in DMEM (Gibco 11965-092) supplemented with L-glutamine 200 mM (100×) (Gibco25030-081), non-essential amino acids (NEAA)(Biowhittaker 13-114E), heat-inactivated (HI) Fetal Bovine Serum(FBS)(Hyclone SH3007.03) and […] geneticin (G418)(Gibco 10131-035). Cells were sub-divided 1:3 or 4 every 2-3 days.
# 24 h prior to the assay, GS4.3 cells were collected, counted, and plated in 96-well plates (Costar 3585) at 7500 cells/well in 100 μl standard maintenance medium (above) and incubated in the conditions above. To initiate the assay, culture medium was removed, cells were washed once with PBS (Gibco 10010-023) and 90 μl Assay Medium (DMEM, L-glutamine, NEAA, 10% HI FBS, no G418) was added. Inhibitors were made as a 10× stock in Assay Medium, (3-fold dilutions from 10 μM to […] final concentration, final DMSO concentration 1%), 10 μl were added to duplicate wells, plates were rocked to mix, and incubated as above for 72 h.
# An NPTII Elisa kit was obtained from AGDIA, Inc. (Compound direct ELISA test system for Neomycin Phosphotransferase II, PSP 73000/4800). Manufacturer's instructions were followed, with some modifications. 10×PEB-1 lysis buffer was made up to include 500 μM PMSF (Sigma P7626, 50 mM stock in isopropanol). After 72 h incubation, cells were washed once with PBS and 150 μlPEB-1 with PMSF was added per well. Plates were agitated vigorously for 15 minutes, room temperature, then frozen at −70° C. Plates were thawed, lysates were mixed thoroughly, and 100 μl were applied to an NPTII Elisa plate. A standard curve was made. Lysate from DMSO-treated control cells was pooled, serially diluted with PEB-1 with PMSF, and applied to duplicate wells of the ELISA plate, in a range of initial lysate amount of 150 ul-2.5 ul. In addition, 100 μl buffer alone was applied in duplicate as a blank. Plates were sealed and gently agitated at room temperature for 2 h. Following capture incubation, the plates were washed 5×300 μlwith PBS-T (0.5% Tween-20, PBS-T was supplied in the ELISA kit). For detection, a 1× dilution of enzyme conjugate diluent MRS-2 (5×) was made in PBS-T, into which 1:100 dilutions of enzyme conjugates A and B were added, as per instructions. Plates were resealed, and incubated with agitation, covered, room temperature, for 2 h. The washing was then repeated and 100 μlof room temperature TMB substrate was added. After approximately 30 minutes incubation (room temperature, agitation, covered), the reaction was stopped with 50 μl 3M sulfuric acid. Plates were read at 450 nm on a Molecular Devices Versamax plate reader.
# Inhibitor effect was expressed as a percentage of DMSO-treated control signal, and inhibition curves were calculated using a 4-parameter equation: y=A+4B-A)/(1+((C/x)^13))), where C is half-maximal activity or EC50.
row,Structure (SMILES),EC50 [nM]
1,Cc1noc(C)c1S(=O)(=O)NC(=O)[C@@]12C[C@H]1/C=C\CCCCC[C@H](NC(=O)OC1CCCC1)C(=O)N1C[C@H](OC(=O)N3CCc4ccccc4C3)C[C@H]1C(=O)N2 [Compound 187],< 1000
2,CS(=O)(=O)NC(=O)[C@@]12C[C@H]1/C=C\CCCCC[C@H](NC(=O)OC1CCCC1)C(=O)N1C[C@H](OC(=O)N3CCc4ccccc4C3)C[C@H]1C(=O)N2 [Compound 119],< 1000
3,O=C1N[C@]2(C(=O)NS(=O)(=O)C3CC3)C[C@H]2/C=C\CCCCC[C@H](Nc2c(N3C4CCC3CC4)c(=O)c2=O)C(=O)N2C[C@H](OC(=O)N3Cc4cccc(F)c4C3)C[C@@H]12 [Compound 199],< 10000
4,N[C@H]1CCCCC/C=C\[C@@H]2C[C@@]2(C(=O)NS(=O)(=O)Nc2ccc(Cl)cc2)NC(=O)[C@@H]2C[C@@H](OC(=O)N3Cc4ccccc4C3)CN2C1=O [Compound 203],> 10000
5,CC(C)S(=O)(=O)NC(=O)[C@@]12C[C@H]1/C=C\CCCCC[C@H](NC(=O)OC1CCCC1)C(=O)N1C[C@H](OC(=O)N3CCc4ccccc4C3)C[C@H]1C(=O)N2 [Compound 118],< 100
6,CN(C)c1ccc(S(=O)(=O)NC(=O)[C@@]23C[C@H]2/C=C\CCCCC[C@H](NC(=O)OC2CCCC2)C(=O)N2C[C@H](OC(=O)N4CCc5ccccc5C4)C[C@H]2C(=O)N3)cc1 [Compound 183],< 100

# Same assay, conditions: Hepatitis C virus, Huh-7; GS4.3 cells, 72 h; read-out: Replicon EC50
row,Structure (SMILES),EC50 [nM]
1,O=C(N[C@@H]1CCCCC/C=C\[C@@H]2C[C@]2(C(=O)NS(=O)(=O)N2CCC(F)(F)C2)NC(=O)C2C[C@H](OC(=O)N3Cc4ccccc4C3)CN2C1=O)OC1CCCC1 (stereo partly drawn) [Compound 227],< 100
2,CNc1c(NC(=O)C23C[C@H]2/C=C\CCCCC[C@H](NC(=O)OC(C)(C)C)C(=O)N2C[C@H](OC(=O)N4Cc5cccc(F)c5C4)C[C@H]2C(=O)N3)c(=O)c1=O (stereo partly drawn) [Compound 646],> 10000
3,O=C1N[C@]2(C(=O)NS(=O)(=O)C3CC3)C[C@H]2/C=C\CCCCC[C@H](NC(=S)N2CCCC2)C(=O)N2CC(OC(=O)N3Cc4cccc(F)c4C3)C[C@@H]12 (stereo partly drawn) [Compound 244],< 100
4,O=C1N[C@]2(C(=O)NS(=O)(=O)C3CC3)C[C@H]2/C=C\CCCCC[C@H](Nc2c(N3CCC3)c(=O)c2=O)C(=O)N2CC(OC(=O)N3CCc4ccccc4C3)C[C@@H]12 (stereo partly drawn) [Compound 242],< 10000
5,O=C1N[C@]2(C(=O)NS(=O)(=O)C3CC3)C[C@H]2/C=C\CCCCC[C@H](NC(=O)N2CCCC2)C(=O)N2CC(OC(=O)N3Cc4cccc(F)c4C3)C[C@@H]12 (stereo partly drawn) [Compound 243],< 100
6,O=C(N[C@H]1CCCCC/C=C\[C@@H]2C[C@@]2(C(=O)O)NC(=O)C2C[C@@H](OC(=O)N3Cc4ccncc4C3)CN2C1=O)OC1CCCC1 (stereo partly drawn) [Compound 146],> 10000
7,CN(Cc1ccccc1)C(=O)OC1C[C@H]2C(=O)N[C@]3(C(=O)NS(=O)(=O)C4CC4)C[C@H]3/C=C\CCCCC[C@H](NC(=O)OC(C)(C)C)C(=O)N2C1 (stereo partly drawn) [Compound 245],< 1000
8,O=C(N[C@H]1CCCCC/C=C\[C@@H]2C[C@@]2(C(=O)NC(=O)C2CC2)NC(=O)C2C[C@@H](OC(=O)N3CCc4ccccc4C3)CN2C1=O)OC1CCCC1 (stereo partly drawn) [Compound 706],< 100
9,Cc1ccccc1S(=O)(=O)NC(=O)[C@@]12C[C@H]1/C=C\CCCCC[C@H](NC(=O)OC(C)(C)C)C(=O)N1C[C@H](OC(=O)N3Cc4cccc(F)c4C3)CC1C(=O)N2 (stereo partly drawn) [Compound 157],< 100
10,CC(C)(C)OC(=O)N[C@H]1COCCC/C=C\[C@@H]2C[C@@]2(C(=O)NS(=O)(=O)C2CC2)NC(=O)[C@@H]2C[C@@H](OC(=O)N3Cc4cccc(Cl)c4C3)CN2C1=O [Compound 1025],< 100
11,O=C(N[C@H]1CCCCC/C=C\[C@@H]2C[C@@]2(C(=O)NS(=O)(=O)C2CC2)NC(=O)C2C[C@@H](OC(=O)N3Cc4ccncc4C3)CN2C1=O)OC1CCCC1 (stereo partly drawn) [Compound 155],< 1000
12,CC(C)(C)OC(=O)N[C@H]1CCC(O)CC/C=C\[C@@H]2C[C@@]2(C(=O)NS(=O)(=O)C2CC2)NC(=O)[C@@H]2C[C@@H](OC(=O)N3Cc4cccc(F)c4C3)CN2C1=O (stereo partly drawn) [Compound 1018],< 1000
13,"CC(C)(C)C(O)C(=O)NC1CCCCCC=CC2CC2(C(=O)NS(=O)(=O)C2CC2)NC(=O)C2CC(OC(=O)N3Cc4cccc(F)c4C3)CN2C1=O (single isomer, unassigned) [Compound 248]",< 1000

# Biological target: T1, NS3-NS4 protease (full-length NS3/NS4A-2) (Hepatitis C virus genotype 1a, UniProt P27958)
# T1 construct: Recombinant E. coli or Baculovirus full-length NS3 was diluted to 3.33 μM with assay buffer; made in house; host or cells: E. coli or baculovirus (insect cells)
# T1 sequence (P27958 1027-1657): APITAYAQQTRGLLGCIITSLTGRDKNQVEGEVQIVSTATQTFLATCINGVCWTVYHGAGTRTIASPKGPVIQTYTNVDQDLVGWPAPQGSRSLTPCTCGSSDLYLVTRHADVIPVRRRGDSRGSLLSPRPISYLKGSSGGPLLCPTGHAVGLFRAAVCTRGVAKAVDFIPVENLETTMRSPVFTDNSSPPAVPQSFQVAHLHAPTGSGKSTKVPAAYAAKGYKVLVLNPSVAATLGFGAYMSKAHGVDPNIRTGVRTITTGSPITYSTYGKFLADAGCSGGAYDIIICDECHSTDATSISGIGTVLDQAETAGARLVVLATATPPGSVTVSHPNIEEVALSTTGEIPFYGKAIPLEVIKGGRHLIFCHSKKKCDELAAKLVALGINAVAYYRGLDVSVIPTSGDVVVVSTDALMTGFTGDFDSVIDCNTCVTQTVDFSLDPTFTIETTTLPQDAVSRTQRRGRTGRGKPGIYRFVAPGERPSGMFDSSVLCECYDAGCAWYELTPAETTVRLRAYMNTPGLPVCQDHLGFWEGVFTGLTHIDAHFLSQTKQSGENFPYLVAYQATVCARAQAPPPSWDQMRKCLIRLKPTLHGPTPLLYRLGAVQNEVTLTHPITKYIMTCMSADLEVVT
# Assay: NS3-NS4 protease assay / NS3 inhibition assay (RETS1 substrate, fluorescence kinetic read)
# Format: biochemical
# Conditions: Table 22; read-out: NS3-NS4 IC50
# Description: NS3 complex formation with NS4A-2.
# The appropriate amount of NS4A-2 to 8.3 mM in assay buffer was added to equal the volume of NS3 in step 2.1.1 (conversion factor—3.8 mg/272 μL assay buffer). The material was transferred to an eppendorf tube and place in water bath in 4° C. refrigerator.
# After equilibration to 4° C., equal volumes of NS3 and NS4A-2 solutions were combined in an eppendorf tube, mix gently with a manual pipettor, and incubate mixture for 15 minutes in the 4° C. water bath.
# After 15 minutes at 4° C., the NS3/NS4A-2 eppendorf tube was removed and place it in a room temperature water bath for 10 minutes. NS3/NS4A-2 was alliquoted at appropriate volumes and store at −80° C. (E. coli NS3 run at 2 nM in assay, aliquot at 25 μL. BV NS3 run at 3 nM in assay, aliquot at 30 μL).
# Sample compounds were dissolved to 10 mM in DMSO then diluted to 2.5 mM (1:4) in DMSO.
# The E. coli. […] Using the manual multichannel pipettor, careful not to introduce bubbles into the plate, add 50 μL assay buffer to wells A01-H01 of a black Costar 96-well polypropylene storage plate.
# Using the manual multichannel pipettor, careful not to introduce bubbles into the plate, add 50 μL of diluted NS3/NS4A-2 from step 2.2.6 to wells A02-H12 of plate in step 2.2.7. Using the manual multichannel pipettor, careful not to introduce bubbles into the plate, transfer 25 μL of the wells in drug dilution plate in step 2.2.5 to corresponding wells in assay plate in step 2.2.8. Change tips on multichannel pipettor for each row of compounds transferred. Using the manual multichannel pipettor, careful not to introduce bubbles into the plate, mix the wells from the assay plate in step 2.2.9 by aspirating and dispensing 35 μL of the 75 μL in each well five times. Change tips on multichannel pipettor for each row of wells mixed. Cover plate with a polystyrene plate lid and pre-incubate the plate from step 2.2.10 containing NS3 protease and sample compounds 10 minutes at room temperature. While plate from step 2.2.11 is pre-incubating, dilute RETS1 substrate in a 15 mL polypropylene centrifuge tube.
# After the plate in step is done pre-incubating, and using the manual multichannel, add 25 μL of substrate to all wells on the plate. Quickly mix the plate as in step 2.2.10, mixing 65 μL of the 100 μL in the wells.
# Read the plate in kinetic mode on the Molecular Devices SpectraMax
# IC50s are determined using a four parameter curve fit equation, and converted to Ki's using the following Km's:
# where Ki=IC50/(1+[S]/Km))
row,Structure (SMILES),IC50 [nM]
1,C[C@H](NC(=O)[C@@]12C[C@H]1/C=C\CCCCC[C@H](NC(=O)OC(C)(C)C)C(=O)N1CCC[C@H]1C(=O)N2)c1ccccc1 [Compound 2301],< 10000

# Same assay, conditions: Table 25; read-out: NS3-NS4 IC50
row,Structure (SMILES),IC50 [nM]
1,Cc1ccc([S@+]([O-])NC(=O)[C@@]23C[C@H]2/C=C\CCCCC[C@H](NC(=O)OC(C)(C)C)C(=O)N2C[C@H](OC(=O)N4Cc5ccccc5C4)C[C@H]2C(=O)N3)cc1 [Compound 2602],< 10000

# Same assay, conditions: read-out: NS3-NS4 IC50
row,Structure (SMILES),IC50 [nM]
1,CC(C)(C)OC(=O)N[C@H]1CCCCC/C=C\[C@@H]2C[C@@]2(C(=O)NS(=O)(=O)NC2CCCC2)NC(=O)[C@@H]2CCCN2C1=O [Compound 2215],< 1000
2,CC(C)(C)OC(=O)N[C@H]1CCCCC/C=C\[C@@H]2C[C@@]2(C(=O)NS(=O)(=O)c2ccc(Cl)cc2Cl)NC(=O)[C@@H]2CCCN2C1=O [Compound 2153],< 10000
3,CC(C)(C)OC(=O)N[C@H]1CCCCC/C=C\[C@@H]2C[C@@]2(C(=O)NS(=O)(=O)c2cnccc2Cl)NC(=O)[C@@H]2CCCN2C1=O [Compound 2128],< 10000
4,CC(C)(C)OC(=O)N[C@H]1CCCCC/C=C\[C@@H]2C[C@@]2(C(=O)NS(=O)(=O)Nc2ccccc2)NC(=O)[C@@H]2CCCN2C1=O [Compound 2246],< 1000
5,CCCS(=O)(=O)NC(=O)[C@@]12C[C@H]1/C=C\CCCCC[C@H](NC(=O)OC(C)(C)C)C(=O)N1CCC[C@H]1C(=O)N2 [Compound 2105],< 1000
6,CC(C)(C)OC(=O)N[C@H]1CCCCC/C=C\[C@@H]2C[C@@]2(C(=O)NS(=O)(=O)NC2CCC2)NC(=O)[C@@H]2CCCN2C1=O [Compound 2214],< 1000
